Entries after “also recorded” stand apart in the source; their conditions may differ.
Tests used:
[1] = system: abdominal organs and peritoneum; experiment: Survival and necropsy of healthy rats after peritoneal washing (groups A, B)
From the text: During this phase, a series of survival experiments were established with various work groups and subgroups to learn about the co-adjuvant or enhancing role of collagenase in the treatment of peritoneal tumors with chemotherapeutic agents such as mitomycin C:
Each group initially consisted of 6 rats (2×3). In the initial design, 3 animals were sacrificed after 15 days and the rest were left until the conditions of the animals required them to be sacrificed (subcutaneous tumor growth >0.5 cm in diameter) or a maximum of 2 months.

mutated KRAS oncogene = experiment: Digital PCR of KRAS in plasma; assay type: in vivo, rat; settings: for Mutated KRAS event no.: plasma
Protocol: (§1) The procedure was performed 2 times in the TCQ group, the first time with collagenase and after 2 minutes peritoneal washing with mitomycin C at the different concentrations to be tested was repeated. […] Blood was also collected from all the animals before sacrificing them, the blood was processed within the hour following its extraction to obtain plasma and to analyze, on one hand, the existence of the mutated KRAS oncogene (mutation in codon 12 of exon 1 expressed by DHD cells), and on the other hand the existence of collagenase traces or residues in blood after the peritoneal washes. A digital PCR was used for the KRAS oncogene localization study. For the collagenase trace study, the anonymized samples were sent to Lyposmol laboratories for the performance of specific anti-MMP-1 and anti-MMP-2 ELISAS.
To analyze the presence of mutated KRAS in the blood of the different groups by means of digital PCR, DNA was extracted from at least 2 ml of plasma/group by means of the QlAamp Circulating Nucleic Acid kit according to the manufacturer's data and the results were those listed in Table 4.

[2] = system: peritoneal carcinomatosis (DHD cells); experiment: Survival and necropsy of rats with carcinomatosis after peritoneal washing (groups D, E, F); assay type: in vivo, rat; settings: for Observations (necropsy): group E, Mito 5 mg; for outcome of group E: mitomycin 5 mg/animal, large amount of analgesia
Protocol: as §1
Each group initially consisted of 6 rats (2×3).

Question: How did the “necropsies of group B1” value ([1]; 5 mg of mitomycin) turn out when CO[C@@]12[C@H](COC(N)=O)C3=C(C(=O)C(C)=C(N)C3=O)N1C[C@@H]1N[C@@H]12 [Mitomycin C, mitomycin C] was run?
Answer: Its value is “many irritated and bloody adhesions, and thin organ walls and vessels”.

Question: What about the clinical condition ([1]; group B, high dose 5 mg/animal) of the same molecule?
Answer: Its clinical condition is “always lethargic and exhibit very little activity”.

Question: And the survival time ([1]; group B, high dose 5 mg/animal, despite continuous analgesia)?
Answer: Its survival time is ≤ 2 weeks.

Question: What about the “Observations (necropsy)” value ([1]; group B-1, healthy rats, 5 mg, 1 week, 2 animals, listed as Mito) of the same molecule?
Answer: Its value is “Significant weight loss. Viscera affected”.

Question: What about the “Observations (necropsy)” value ([1]; group B-1, healthy rats, 5 mg, 1 week, 2 animals, listed as mitomycin) of the same molecule?
Answer: Its value is “all the abdominal organs are in a relaxed and retracted state (with kidneys that appear necrotic and liver that appears collapsed), the omentum can be ruptured upon contact, and the large intestine obstructed”.

Question: What about the “Observations (necropsy)” value ([1]; group B-1, healthy rats, 5 mg, 5 days, 1 animal) of the same molecule?
Answer: The value was “intestinal puncture”.

Question: What about the “Observations (necropsy)” value ([1]; group B-2, healthy rats, 0.1 mg, 1 week, 1 animal) of the same molecule?
Answer: The value was “Organs with thinning and bloody walls; also recorded: Many adhesions”.

Question: And the “Observations (necropsy)” value ([1]; group B-2, healthy rats, 0.1 mg, 2 months, 2 animals, listed as Mito)?
Answer: The value was “Greenish liquid in abdomen, peritonitis; also recorded: high degree of adhesions”.

Question: And the “Observations (necropsy)” value ([1]; group B-2, healthy rats, 0.1 mg, 2 months, 2 animals, listed as mitomycin)?
Answer: The value was “the intestine and an omentum are hematic”.

Question: And the “Observations (necropsy)” value ([1]; group B-2, healthy rats, 0.1 mg, 24 h, 2 animals)?
Answer: The value was “Evisceration”.

Question: And the “mutated KRAS in the plasma, assessment” value (mutated KRAS oncogene; group E (DHD + mitomycin C 5 mg/animal), only such group among the treatments)?
Answer: Its value is “positive mutated KRAS in the plasma”.

Question: And the “Mutated KRAS event no.” value (mutated KRAS oncogene; group B (healthy rats, mitomycin))?
Answer: The value was 0.

Question: What about the “Mutated KRAS event no.” value (mutated KRAS oncogene; group E (DHD + Mito 5 mg/animal)) of the same molecule?
Answer: Its value is 524.

Question: And the “Observations (necropsy)” value ([2]; 1 week, 1 animal)?
Answer: Its value is “Endpoint criterion”.

Question: And the “Observations (necropsy)” value ([2]; 2 weeks, 2 animals)?
Answer: The value was “Endpoint criterion”.

Question: What about the “Observations (necropsy)” value ([2]; 72 h, 3 animals) of the same molecule?
Answer: The value was “Endpoint criterion”.

Question: What about the “outcome of group E” value [2] of the same molecule?
Answer: Its value is “all the animals had to be sacrificed due to endpoint criterion”.

Question: And the “outcome of group E” value ([2]; listed as mitomycin)?
Answer: Its value is “Half of the animals were found dead the first night after surgery”.

From US20220047687A1, “CHEMICAL SCALPEL” (FUNDACIÓN INSTITUTO DE INVESTIGACIÓN SANITARIA FUNDACIÓN …, priority 2019, published 2022)
